Data reported in patent US6780995B2, “Activated iododerivatives for the treatment of cancer and aids” (Isotechnika Inc., priority 1997, dated 2004).
Like-named read-outs stand apart in the source and are kept apart here.

Experiments:
[1] = system: M14 cells; experiment: IC50 assay, inhibition of cell proliferation and growth, M14; type: cell-based, human
Procedure: (§1) Cell culture: The human cell lines were propagated under sterile conditions in RPMI 1640 (CellGrow) with 10% fetal bovine serum (Hyclone), 2 mM L-glutamine, and sodium bicarbonate (complete medium) and incubated at 37° C. in HEPA-filtered Sterilcult CO2 tissue culture incubators (Forma) with 5% CO^2 and 95% humidity (Table 1). The murine leukemia cell lines were propagated in Dulbecco's MEM media with 10% equine serum (Hyclone), 2 mM L-glutamine, and sodium bicarbonate (complete medium) and incubated as described. The cells were subcultured twice weekly and used in experiments. The culture was screened for mycoplasma contamination using GeneProbe™ (Fisher) and positive cultures were cured of contaminants over three passages using constant treatment with BM-Cyclin™ antibiotic combination (Boehringer Mannheim). Only cultures confirmed as mycoplasma free were used in testing compounds for anticellular activity.
(§2) The test compounds were stored at 4° C. under light protected conditions. The test compounds were weighed and dissolved in DMSO. The dissolved compounds were then serially diluted in warm medium (RPMI 1640 or Dulbecco's MEM) under constant mixing to minimize precipitation. The positive control drug doxorubicin was diluted in water followed by dilution in media to achieve a final concentration of 200 nM.
(§3) For all experiments, the cells were harvested and centrifuged to remove the media, and suspended in fresh completed medium. Samples were taken to determine cell density. The cell count was determined with a Coulter Model Z1 cell counter and viability was measured with propidium iodide staining followed by analysis on a Coulter EPPICS Elite Flow cytometer. The cell samples sere adjusted with complete medium to a density of 5×10^4/mL for adherent cell lines and 1×10^5/mL for suspension lines. Tissue culture cluster plates (96 well, cat. No. 3595 Costar for adherent human lines and cat No. 25850 Corning for murine leukemias) were seeded with 100 μL cells and incubated as described. Replicate groups of plates were set up for each line to accommodate the exposure options for single agents and combinations. For each dilution 8 wells (100 μL samples of cells) were treated with 100 μL of dosing solution one day after plating. Each cluster plate contained a cell control (8 wells, mock-treated with complete medium), a medium control (3 wells with medium used to subtract out signal generated by media conditions), and an air blank (1 well, for calibrating the plate reader).
(§4) Anticellular effects of the compounds for the adherent cell lines were assessed with neutral red dye. On the day of analysis, the media was removed from sample cell monolayers and replaced with 0.1 mL of neutral red solution (0.5% neutral red, HBSS:RPMI 1640 (1:1), 0.05 M HEPES, pH 7.2). After incubation of the samples at 37° C. for 1 hour the excess dye was removed with blotting and the monolayers were washed twice with 0.85% NaCl solution (0.1 mL per wash). The cell associated dye was extracted by adding 0.2 mL of a 0.1 M NaH2PO4:ethanol (1:1) solution/well followed by incubation for 1 hour at 35° C. The absorbency of neutral red in each monolayer was measured at 550 nm (620 nm reference beam) on a Denley Anthos 2001 microplate reader. The data were transferred via the ARCOM software capture program in Lotus 1-2-3 for processing.
(§5) In assays where technical difficulties due to crystalization of the neutral red occurred the crystal violet staining procedure was employed to measure the amount of cells were left on the plate. Crystal violet staining solution [0.5% crystal violet (w/v), 50% methanol (v/v), 45% saline (v/v), and 5% formalin (v/v)] were prepared on the day of staining. After the media was removed from the sample wells, two drops of crystal violet stain were added to each well and the samples were incubated at ambient temperature for 10 minutes. […]

[2] = system: COLO 205 cells; experiment: IC50 assay, inhibition of cell proliferation and growth, COLO 205; type: cell-based, human
Procedure: as §1, §2, §3, §4, §5

[3] = system: A549 cells; experiment: IC50 assay, inhibition of cell proliferation and growth, A549; type: cell-based, human
Procedure: as §1, §2, §3, §4, §5

[4] = system: RPMI 8226 cells; experiment: IC50 assay, inhibition of cell proliferation and growth, RPMI 8226; type: cell-based; settings: Homo sapiens, RPMI-8226, read-out: IC50 Concentrations, RPM 18226
Procedure: as §1, §2, §3
(§6) Using the procedures described above, concentrations of the Example compounds necessary to inhibit cell proliferation and growth by 50% (1C50 values) were determined in the test cell lines.

[5] = system: SK-MEL-5 cells; experiment: IC50 assay, inhibition of cell proliferation and growth, SK-MEL-5; type: cell-based, human
Procedure: as §1, §2, §3, §4, §5

[6] = system: SK-OV-3 cells; experiment: IC50 assay, inhibition of cell proliferation and growth, SK-OV-3; type: cell-based, human
Procedure: as §1, §2, §3, §4, §5

[7] = system: MCF7 cells; experiment: IC50 assay, inhibition of cell proliferation and growth, MCF7; type: cell-based, human; settings: Homo sapiens
Procedure: as §1, §2, §3, §4, §5

[8] = system: P388 cells; experiment: IC50 assay (XTT), inhibition of cell proliferation and growth, P388; type: cell-based; settings: P388 murine leukemia cell line, XTT dye conversion, read-out: IC50 Concentrations, P388
Procedure: as §1, §2, §3
(§7) Anticellular effects of the murine leukemia cell lines were assessed with the XTT dye conversion assay which is more suited to suspension cultures. On the day of analysis XTT[2,3-bis(2-methoxy-4-nitro-5-sulfophenyl)-5-[(phenylamino)carbenyl]-2H-tetrazolium hydroxide, inner salt, sodium salt (Sigma)] was weighed out and dissolved at 1 mg/mL in media. PMS (phenazine methosulfate) was prepared at 5 mM in PBS (phosphate buffered saline) and stored as a stock solution 4° C. The PMS was mixed with dissolved XTT to a final concentration of 0.025 mM. Sample wells were treated with 50 μL of the XTT solution and the plates were incubated for four hours at 37° C. to allow for conversion into the liquid soluble formazan product. After the incubation period the reaction was stopped by adding 10 μL of 10% SDS solution per well and the wells contents of each plate were mixed by agitation. The absorbancy of formazan in each monolayer was measured at 450 nm (620 nm reference beam) on a Denley Anthos 2001 microplate reader. The data were transferred via the ARCOM software capture program into Lotus 1-2-3 for processing.
as §6

[9] = system: B16 cells; experiment: IC50 assay, inhibition of cell proliferation and growth, B16; type: cell-based; settings: B16 murine melanoma cell line, neutral red or crystal violet, read-out: IC50 Concentrations, B16
Procedure: as §1, §2, §3, §4, §5

[10] = system: L1210 cells; experiment: IC50 assay (XTT), inhibition of cell proliferation and growth, L1210; type: cell-based; settings: L1210 murine leukemia cell line; XTT dye conversion; read-out: IC50 Concentrations, L1210
Procedure: as §1, §2, §3, §7, §6

[11] = Homo sapiens, M14, read-out: IC50 Concentrations, M14
[12] = Homo sapiens, COLO 205, read-out: IC50 Concentrations, COLO 205
[13] = Homo sapiens, A549, read-out: IC50 Concentrations, A 549
[14] = Homo sapiens, SK-MEL-5, read-out: IC50 Concentrations, SK MEL-5
[15] = Homo sapiens, SK-OV-3, read-out: IC50 Concentrations, SK-OV-3
[16] = MCF7, read-out: IC50 Concentrations, MCF 7
[17] = Homo sapiens, M14 melanoma cell line, neutral red or crystal violet, read-out: IC50 Concentrations, M14
[18] = Homo sapiens, COLO 205 colon adenocarcinoma cell line, neutral red or crystal violet, read-out: IC50 Concentrations, COLO 205
[19] = Homo sapiens, A549 bronchogenic cell line, neutral red or crystal violet, read-out: IC50 Concentrations, A 549
[20] = Homo sapiens, SK-MEL-5 melanoma cell line, neutral red or crystal violet, read-out: IC50 Concentrations, SK MEL-5
[21] = Homo sapiens, SK-OV-3 ovarian adenocarcinoma cell line, neutral red or crystal violet, read-out: IC50 Concentrations, SK-OV-3
[22] = MCF7 breast adenocarcinoma cell line, neutral red or crystal violet, read-out: IC50 Concentrations, MCF 7

Row | Compound | IC50 [1, 11] | IC50 [2, 12] | IC50 [3, 13] | IC50 [5, 14] | IC50 [6, 15] | IC50 [7, 16] | IC50 [1, 17] | IC50 [2, 18] | IC50 [3, 19] | melting point | IC50 ([9]; Mus musculus) | IC50 [5, 20] | IC50 [6, 21] | IC50 [7, 22] | further results
1 | O=C(NCCCCCCNC(=O)c1cc([N+](=O)[O-])ccc1I)c1cc([N+](=O)[O-])ccc1I [Ref. No. 24, 1,6-Di-(2′-Iodo-5′-Nitro-Benzamido)-Hexane] | > 500 µM | > 500 µM | > 500 µM | > 500 µM | > 500 µM | > 500 µM |  |  |  |  |  |  |  |  | IC50 [4]: > 500 µM
2 | C#CCNC(=O)c1cc([N+](=O)[O-])ccc1I [Ref. No. 8, N-(Propargyl) 2-Iodo-5-Nitro-Benzamide] |  |  |  |  |  |  | 49 µM | 30.6 µM | 46.6 µM | 204 to 206 °C | 50 µM | 90.4 µM | 43.4 µM | 47.7 µM | IC50 ([8]; Mus musculus): 25.8 µM
3 | CN(C)CCNC(=O)c1cc([N+](=O)[O-])ccc1I [Ref. No. 1, (N,N-Dimethylaminoethyl)-2-Iodo-5-Nitro-Benzamide] | 474 µM | 267 µM | 333 µM | 40.1 µM | 404 µM | 133 µM |  |  |  | 126 to 128 °C |  |  |  |  | 
4 | NC(=O)c1cc(N)ccc1I [Ref. No. 13] |  |  |  |  |  |  | > 500 µM | > 500 µM | > 500 µM |  | 500 µM | > 500 µM | > 500 µM | > 500 µM | IC50 ([8]; Mus musculus): 439 µM
5 | O=C(c1cc([N+](=O)[O-])ccc1I)N(C(=O)c1cc([N+](=O)[O-])ccc1I)C1=NCCS1 [Ref. No. 17] | 37.9 µM | > 500 µM | 127 µM | 42.8 µM | 32 µM | 46.9 µM |  |  |  |  |  |  |  |  | IC50 [4]: > 50 µM
6 | O=C(Nc1nccs1)c1cc([N+](=O)[O-])ccc1I [Ref. No. 5, 2-(2′-Iodo-5′-Nitro-Benzamido)-Thiazole] |  |  |  |  |  |  | 17.4 µM | 13.4 µM | 48.6 µM | 210 to 213 °C | 30.8 µM | 46.2 µM | 32.8 µM | 27 µM | 
7 | Cc1csc(N(C(=O)c2cc([N+](=O)[O-])ccc2I)C(=O)c2cc([N+](=O)[O-])ccc2I)n1 [Ref. No. 20] | 15.1 µM | 42.6 µM | 48.4 µM | 47.1 µM | 10.8 µM | 36.1 µM |  |  |  |  |  |  |  |  | IC50 [4]: 13.7 µM
8 | O=C(Nc1ncc([N+](=O)[O-])s1)c1cc([N+](=O)[O-])ccc1I [Ref. No. 6, 2-(2′-Iodo-5′-Nitro-Benzamido)-5-Nitro-Thiazole] | 141 µM | 117 µM | 86.5 µM | 132 µM | 130 µM | 80.9 µM |  |  |  | 230 to 234 °C |  |  |  |  | 
9 | C=C(C)c1ccccc1NC(=O)c1cc([N+](=O)[O-])ccc1I [Ref. No. 9, N-(2′-Iodo-5′-Nitro-Benzoyl) 2-Isopropenyl Aniline] |  |  |  |  |  |  | > 500 µM |  | > 500 µM | 155 to 158 °C | 462 µM | > 500 µM | > 500 µM | 100 µM | 
10 | O=C(Nc1ccc2c(C(F)(F)F)cc(=O)oc2c1)c1cc([N+](=O)[O-])ccc1I [Ref. No. 3, 7-(2′-Iodo-5′-Nitro-Benzamido)-4-Trifluoromethyl-2H-1-Benzopyran-2-one] | 126 µM | 39.9 µM | 363 µM | 37.7 µM | 44 µM | 114 µM |  |  |  | 223 to 227 °C |  |  |  |  | 
11 | CCN(CC)CCNC(=O)c1cc([N+](=O)[O-])ccc1I [Ref. No. 2, (N,N-Diethylaminoethyl)-2-Iodo-5-Nitro-Benzamide] |  | 343 µM | 333 µM |  |  | 128 µM |  |  |  | 124 to 126 °C |  |  |  |  | 
12 | N-(3′-Pyridyl)-2-Iodo-5-Nitrophenyl Hydrazide [Ref. No. 11] |  |  |  |  |  |  |  |  |  |  |  |  |  |  | IC50 ([1]; M14 melanoma cell line, neutral red or crystal violet, read-out: IC50 Concentrations, M14): 467 µM; IC50 [10]: ≥ 55.6 µM; IC50 ([2]; COLO 205 colon adenocarcinoma cell line, neutral red or crystal violet, read-out: IC50 Concentrations, COLO 205): 111 µM; IC50 [8]: > 55.6 µM; IC50 ([3]; A549 bronchogenic cell line, neutral red or crystal violet, read-out: IC50 Concentrations, A 549): 387 µM; IC50 [9]: 129 µM; IC50 ([5]; SK-MEL-5 melanoma cell line, neutral red or crystal violet, read-out: IC50 Concentrations, SK MEL-5): 413 µM; IC50 ([6]; SK-OV-3 ovarian adenocarcinoma cell line, neutral red or crystal violet, read-out: IC50 Concentrations, SK-OV-3): 381 µM
13 | O=C(Nc1ccc2ccc(=O)oc2c1)c1cc([N+](=O)[O-])ccc1I [Ref. No. 4, 7-(2′-Iodo-5′-Nitro-Benzamido)-2H-1-Benzopyran-2-one] |  |  |  |  |  |  | > 500 µM | > 500 µM | > 500 µM | 273 to 277 °C | 15.9 µM | > 500 µM | 395 µM | > 500 µM | 
14 | C=CCNC(=O)c1cc([N+](=O)[O-])ccc1I [Ref. No. 7, N-(Allyl)-2-Iodo-5-Nitro-Benzamide] |  |  |  |  |  |  | 41.8 µM | 38.5 µM | 134 µM | 155 to 158 °C | 45.1 µM | 124 µM | 46.4 µM |  | IC50 ([8]; Mus musculus): 39.4 µM
15 | NC(=O)c1cc([N+](=O)[O-])ccc1I [Ref. No. 15, 2-Iodo-5-Nitro-Benzamide] |  |  |  |  |  |  | 36.1 µM | 33.2 µM | 37.4 µM | 260 to 264 °C | 134 µM | 314 µM | 141 µM |  | 
